Measured values published in ChEMBL document CHEMBL1153260, “The synthesis of aminobenzazepinones as anti-phenylalanine dipeptide mimics and their use in nep inhibition” (Bioorg Med Chem Lett, 1996).

Molecular target: T1, Neprilysin (Rattus norvegicus, UniProt P07861)
T1 sequence (P07861 whole entry): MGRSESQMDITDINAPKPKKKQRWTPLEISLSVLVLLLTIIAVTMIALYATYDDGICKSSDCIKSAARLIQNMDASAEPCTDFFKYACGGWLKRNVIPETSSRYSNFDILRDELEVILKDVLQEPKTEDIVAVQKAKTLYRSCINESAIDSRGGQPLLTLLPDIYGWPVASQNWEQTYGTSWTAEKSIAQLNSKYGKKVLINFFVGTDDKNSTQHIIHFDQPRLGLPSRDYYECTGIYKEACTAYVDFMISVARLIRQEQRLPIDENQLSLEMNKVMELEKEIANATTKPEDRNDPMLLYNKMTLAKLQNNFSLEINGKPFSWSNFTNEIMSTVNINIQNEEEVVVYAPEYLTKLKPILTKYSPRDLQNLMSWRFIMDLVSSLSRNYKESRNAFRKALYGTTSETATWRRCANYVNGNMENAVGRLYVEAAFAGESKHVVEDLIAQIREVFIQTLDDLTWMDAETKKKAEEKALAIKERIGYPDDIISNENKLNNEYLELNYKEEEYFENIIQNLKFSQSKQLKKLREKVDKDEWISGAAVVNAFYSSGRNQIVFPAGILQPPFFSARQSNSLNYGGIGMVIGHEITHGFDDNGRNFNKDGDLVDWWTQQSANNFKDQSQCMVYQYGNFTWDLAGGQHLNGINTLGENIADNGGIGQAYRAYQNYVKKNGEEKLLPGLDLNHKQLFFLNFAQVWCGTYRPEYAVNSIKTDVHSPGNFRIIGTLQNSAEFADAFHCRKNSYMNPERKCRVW
Experiment: Compound was tested for inhibition of neutral endopeptidase (NEP).

Compound	Ki [nM]
O=C(O)C1CCCC2c3ccccc3C[C@H](NC(=O)[C@H](S)Cc3ccccc3)C(=O)N12 (stereo partly drawn)	0.07
CC(C)C[C@@H](C(=O)O)N1Cc2ccccc2C[C@H](NC(=O)[C@H](S)Cc2ccccc2)C1=O	0.4
CC(C)CC(C(=O)O)N1CCO[C@@H](c2ccccc2)[C@H](NC(=O)[C@H](S)Cc2ccccc2)C1=O (single isomer, unassigned)	330
